Laboratory results reported in ChEMBL document CHEMBL5346923, “Novel pyridinium cationic pleuromutilin analogues overcoming bacterial multidrug resistance” (Eur J Med Chem, 2023).
Calls of active or inactive are those of the source. The rule behind the calls is not given here.

Tests used:
Enterococcus = experiment: Antibacterial activity against vancomycin-resistant Enterococcus ATCC 700221 assessed as inhibition of bacterial growth measured after 24 hrs by MH broth based assay; type: functional
Staphylococcus aureus [1] = experiment: Antibacterial activity against Staphylococcus aureus ATCC 29213 assessed as inhibition of bacterial growth measured after 24 hrs by MH broth based assay; type: functional
Staphylococcus aureus [2] = experiment: Antibacterial activity against methicillin-resistant Staphylococcus aureus ATCC 43300 assessed as inhibition of bacterial growth measured after 24 hrs by MH broth based assay; type: functional
Streptococcus pneumoniae = experiment: Antibacterial activity against Streptococcus pneumoniae ATCC 49619 assessed as inhibition of bacterial growth measured after 24 hrs by MH broth based assay; type: functional
[3] = system: Staphylococcus epidermidis; experiment: Antibacterial activity against methicillin-resistant Staphylococcus epidermidis ATCC 51625 assessed as inhibition of bacterial growth measured after 24 hrs by MH broth based assay; type: functional
Klebsiella pneumoniae [4] = experiment: Antibacterial activity against Klebsiella pneumonia CMCC (B) 46117 assessed as inhibition of bacterial growth measured after 24 hrs by MH broth based assay; type: functional
Escherichia coli [5] = experiment: Antibacterial activity against Escherichia coli ATCC 25922 assessed as inhibition of bacterial growth measured after 24 hrs by MH broth based assay; type: functional
Staphylococcus aureus [6] = experiment: Antibacterial activity against clinical isolate Staphylococcus aureus harbouring cfr gene assessed as inhibition of bacterial growth measured after 24 hrs by MH broth based assay; type: functional
Staphylococcus aureus [7] = experiment: Antibacterial activity against clinical isolate Staphylococcus aureus harbouring erm C gene assessed as inhibition of bacterial growth measured after 24 hrs by MH broth based assay; type: functional
Staphylococcus aureus [8] = experiment: Antibacterial activity against clinical isolate Staphylococcus aureus harbouring cfr and erm C gene assessed as inhibition of bacterial growth measured after 24 hrs by MH broth based assay; type: functional
Staphylococcus aureus [9] = experiment: Antibacterial activity against clinical isolate Staphylococcus aureus harbouring IsaA, cfr and erm A gene assessed as inhibition of bacterial growth measured after 24 hrs by MH broth based assay; type: functional
Staphylococcus aureus [10] = experiment: Antibacterial activity against clinical isolate Staphylococcus aureus harbouring blaZ gene assessed as inhibition of bacterial growth measured after 24 hrs by MH broth based assay; type: functional
Staphylococcus aureus [11] = experiment: Antibacterial activity against clinical isolate Staphylococcus aureus harbouring ArlS, norA and MgrA gene assessed as inhibition of bacterial growth measured after 24 hrs by MH broth based assay; type: functional
Aerococcus viridans = experiment: Antibacterial activity against clinical isolate Aerococcus viridans harbouring optrA and ErmA gene assessed as inhibition of bacterial growth measured after 24 hrs by MH broth based assay; type: functional
Streptococcus parasuis = experiment: Antibacterial activity against clinical isolate Streptococcus parasuis harbouring InuD gene assessed as inhibition of bacterial growth measured after 24 hrs by MH broth based assay; type: functional
[12] = system: Streptococcus hyovaginalis; experiment: Antibacterial activity against clinical isolate Streptococcus hyovaginalis harbouring IsaE and optrA gene assessed as inhibition of bacterial growth measured after 24 hrs by MH broth based assay; type: functional
[13] = system: Streptococcus hyovaginalis; experiment: Antibacterial activity against clinical isolate Streptococcus hyovaginalis harbouring ErmB and tetO gene assessed as inhibition of bacterial growth measured after 24 hrs by MH broth based assay; type: functional
Enterococcus hirae = experiment: Antibacterial activity against clinical isolate Enterococcus hirae assessed as inhibition of bacterial growth measured after 24 hrs by MH broth based assay; type: functional
Enterococcus lactis = experiment: Antibacterial activity against clinical isolate Enterococcus lactis assessed as inhibition of bacterial growth measured after 24 hrs by MH broth based assay; type: functional
Klebsiella pneumoniae [14] = experiment: Antibacterial activity against clinical isolate Klebsiella pneumoniae harbouring mcr-8 gene assessed as inhibition of bacterial growth measured after 24 hrs by MH broth based assay; type: functional
Escherichia coli [15] = experiment: Antibacterial activity against Escherichia coli MG1655 assessed as inhibition of bacterial growth measured after 24 hrs by MH broth based assay; type: functional
Escherichia coli [16] = experiment: Antibacterial activity against Escherichia coli MG1655 harbouring acrB gene assessed as inhibition of bacterial growth measured after 24 hrs by MH broth based assay; type: functional
Staphylococcus aureus [17] = experiment: Antibacterial activity against methicillin-resistant Staphylococcus aureus ATCC 43300 assessed as reduction in log10 CFU at 6 times of MIC measured after 8 hrs by time-kill assay; type: functional
Staphylococcus aureus [18] = experiment: Antibacterial activity against clinical isolate multi-drug resistant Staphylococcus aureus sal assessed as reduction in log10 CFU at 6 times of MIC measured after 8 hrs by time-kill assay; type: functional
Staphylococcus aureus [19] = experiment: Antibacterial activity against methicillin-resistant Staphylococcus aureus ATCC 43300 assessed as reduction in log10 CFU at 3 times of MIC measured after 8 hrs by time-kill assay; type: functional
Staphylococcus aureus [20] = experiment: Antibacterial activity against clinical isolate multi-drug resistant Staphylococcus aureus sal assessed as reduction in log10 CFU at 1 times of MIC measured after 8 hrs by time-kill assay; type: functional, organism-based
Staphylococcus aureus [21] = experiment: Antibacterial activity against methicillin-resistant Staphylococcus aureus assessed as resistance development by measuring fold increase in MIC measured after 24 days; type: functional; conditions: time 24 day
Staphylococcus aureus [22] = experiment: Antibacterial activity against tiamulin-resistant/methicillin-resistant Staphylococcus aureus assessed as inhibition of bacterial growth; type: functional
Staphylococcus aureus [23] = experiment: Antibacterial activity against 4 times of MIC treated methicillin-resistant Staphylococcus aureus […] assessed as post-antibiotic sub-MIC effect by measuring time required for increase in log10 CFU/ml of bacteria at 0.25 to 0.5 times of MIC incubated for 1 hr by MH broth based assay; type: functional
Staphylococcus aureus [24] = experiment: Antibacterial activity against 2 times of MIC treated methicillin-resistant Staphylococcus aureus […] assessed as post-antibiotic sub-MIC effect by measuring time required for increase in log10 CFU/ml of bacteria at 0.5 times of MIC incubated for 1 hr by MH broth based assay; type: functional
Staphylococcus aureus [25] = experiment: Antibacterial activity against Staphylococcus aureus ATCC 29213 assessed as inhibition of bacterial division at 4 times of MIC by SEM analysis; type: functional, organism-based
Cell membrane [26] = experiment: Disruption of membrane integrity in Staphylococcus aureus ATCC 29213 assessed as induction of cell membrane perforation at 1 to 4 ug/ml incubated for 60 mins by ONPG reagent based analysis; type: subcellular; conditions: dose 1-4 µg/ml
Cell membrane [27] = experiment: Disruption of membrane integrity in Staphylococcus aureus ATCC 29213 at 1 to 6 times of MIC by DAPI/propidium iodide staining based fluorescence microscopic analysis; type: subcellular
HepG2 = experiment: Cytotoxicity against human HepG2 cells assessed as reduction in cell viability at 7.5 to 1000 ug/ml incubated for 6 hrs by CCK-8 assay; type: toxicity, cell-based; conditions: hepg2, 6 h, dose 7.5-1000 µg/ml
HEK293 = experiment: Cytotoxicity against HEK293 cells assessed as reduction in cell viability at 7.5 to 1000 ug/ml incubated for 6 hrs by CCK-8 assay; type: toxicity, cell-based; conditions: human, hek293, 6 h, dose 7.5-1000 µg/ml
[28] = Toxicity in po dosed BABL/C mouse assessed as lethal dose measured upto 14 days; type: organism-based; conditions: in vivo, time < 14 day
Staphylococcus aureus [29] = experiment: Antibacterial activity against multi-drug resistant Staphylococcus aureus sa1 infected in ip dosed BABL/C mouse assessed as survival rate measured upto 7 days; type: functional; conditions: sa1, 168 h, time <= 7 day
Staphylococcus aureus [30] = experiment: Antibacterial activity against multi-drug resistant Staphylococcus aureus sa1 infected in BABL/C mouse assessed as reduction in bacterial load in lungs at 40 mg/kg, ip measured after 2 days; type: functional; conditions: time 2 day

SMILES: C=C[C@]1(C)C[C@@H](OC(=O)CSc2cc[n+](CCCCCCC)cc2)[C@]2(C)[C@H](C)CC[C@]3(CCC(=O)[C@H]32)[C@@H](C)[C@@H]1O.[I-]
- MIC (Enterococcus): 4 µg/mL
- MIC (Staphylococcus aureus [1]): 0.063 µg/mL
- MIC (Staphylococcus aureus [2]): 0.063 µg/mL
- MIC (Streptococcus pneumoniae): < 0.031 µg/mL
- MIC [3]: 0.063 µg/mL
- MIC (Klebsiella pneumoniae [4]): 2 µg/mL
- MIC (Escherichia coli [5]): 32 µg/mL
- MIC (Staphylococcus aureus [6]): 8 µg/mL
- MIC (Staphylococcus aureus [7]): 2 µg/mL
- MIC (Staphylococcus aureus [8]): 8 µg/mL
- MIC (Staphylococcus aureus [9]): 4 µg/mL
- MIC (Staphylococcus aureus [10]): 0.063 µg/mL
- MIC (Staphylococcus aureus [11]): 0.063 µg/mL
- MIC (Aerococcus viridans): 2 µg/mL
- MIC (Streptococcus parasuis): 16 µg/mL
- MIC [12]: 32 µg/mL
- MIC [13]: 32 µg/mL
- MIC (Enterococcus hirae): 0.25 µg/mL
- MIC (Enterococcus lactis): 32 µg/mL
- MIC (Klebsiella pneumoniae [14]): 2 µg/mL
- MIC (Escherichia coli [15]): 32 µg/mL
- MIC (Escherichia coli [16]): 0.5 µg/mL
- Activity (Staphylococcus aureus [17]): 2 log10CFU/ml
- Activity (Staphylococcus aureus [18]): 2 log10CFU/ml
- Activity (Staphylococcus aureus [19]): 2 log10CFU/ml
- Activity (Staphylococcus aureus [20]): Active
- fold change (FC) (Staphylococcus aureus [21]): 8
- MIC (Staphylococcus aureus [22]): 0.5 µg/mL
- Time (Staphylococcus aureus [23]): 2.75 h
- Time (Staphylococcus aureus [24]): ~2.7 h
- Activity (Staphylococcus aureus [25]): Active
- Activity (Cell membrane [26]): Active
- Activity (Cell membrane [27]): Active
- Activity (HepG2): Non-Toxic
- Activity (HEK293): Non-Toxic
- LD50 at 336 h [28]: 879 mg/kg
- ED50 (Staphylococcus aureus [29]): 5.68 mg/kg
- Activity (Staphylococcus aureus [30]): 4.17 log10CFU/ml
